We go through 17 molecules from patent US10975068B2, “6-aminopyridin-3-yl thiazoles as modulators of RORγT” (Janssen Pharmaceutica NV, priority 2016, dated 2021).

One assay has as its target full-length human RORγt (Homo sapiens (Human), UniProt P51449). The experiment in a line: RORγt (full-length human) reporter assay, Conditions B or C. Type of assay: cell-based. Particulars: for RORγt (FL) Reporter Assay B or C, % inhibition (value marked *): marked *: footnote not given. In outline:
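Readout is dual luciferase: firefly (GAL4-driven) normalized to DMSO-only and saturating-reference controls, then to CMV-Renilla. Full-length human RORγt fused to GAL4-DBD was transiently expressed in HEK293T; compound exposure ran overnight (16-20 h) starting 4-6 h after transfection, final FBS 1.3%, DMSO 0.1%.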
In general terms: Reporter assays use an easily measured gene product as a stand-in for the process of interest.

Assay [1] addresses human RORγt ligand binding domain (RORγt LBD) (Homo sapiens (Human), UniProt P51449). The experiment in a line: RORγt ThermoFluor® assay (thermal shift binding). As to conditions: read-out: ThermoFluor® Assay, Kd. In outline:
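Binding was inferred from thermal stabilisation (ΔTm) of the E. coli-expressed RORγt LBD (0.065 mg/mL), monitored by 1,8-ANS (60 μM) emission at 500 nm during a 1 °C/min ramp. Buffer was Hepes 100 mM pH 7.0 with NaCl, GSH and Tween-20.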

Where [2] appears, read: Conditions B or C, read-out: RORγt (FL) Reporter Assay B or C, IC50.
Setting [3] is: at 3 μM compound concentration, read-out: RORγt (FL) Reporter Assay B or C, % inhibition.
Where [4] appears, read: read-out: RORγt (FL) Reporter Assay B or C, IC50.

Like-named read-outs stand apart in the source and are kept apart here. Marks after values point to notes of the source that are not given here.

full-length human RORγt, sequence (P51449 other isoform, or with tags, fused parts or gaps): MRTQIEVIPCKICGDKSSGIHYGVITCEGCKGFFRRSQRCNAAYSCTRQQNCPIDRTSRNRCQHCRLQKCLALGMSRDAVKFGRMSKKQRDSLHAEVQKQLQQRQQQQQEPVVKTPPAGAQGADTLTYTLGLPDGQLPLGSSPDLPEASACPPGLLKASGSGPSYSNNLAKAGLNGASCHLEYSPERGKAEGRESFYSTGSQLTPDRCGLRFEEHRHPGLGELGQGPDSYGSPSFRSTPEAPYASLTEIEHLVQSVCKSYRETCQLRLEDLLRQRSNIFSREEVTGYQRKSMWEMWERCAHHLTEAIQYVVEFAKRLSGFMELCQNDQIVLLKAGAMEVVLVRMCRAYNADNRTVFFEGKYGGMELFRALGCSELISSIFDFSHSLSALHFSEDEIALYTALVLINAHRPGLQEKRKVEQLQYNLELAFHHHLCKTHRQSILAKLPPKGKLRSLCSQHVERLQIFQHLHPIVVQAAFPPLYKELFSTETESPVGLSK
human RORγt ligand binding domain (RORγt LBD), sequence (P51449 other isoform, or with tags, fused parts or gaps): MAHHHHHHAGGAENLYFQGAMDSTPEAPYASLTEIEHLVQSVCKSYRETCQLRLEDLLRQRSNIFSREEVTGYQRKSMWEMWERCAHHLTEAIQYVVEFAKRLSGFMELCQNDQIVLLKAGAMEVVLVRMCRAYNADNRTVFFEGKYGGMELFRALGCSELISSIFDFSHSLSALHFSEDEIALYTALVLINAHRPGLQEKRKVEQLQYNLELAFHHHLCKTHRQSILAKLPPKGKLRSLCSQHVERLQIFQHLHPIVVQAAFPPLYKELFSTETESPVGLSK

Turning to `C[C@H]1CCCN1C(=O)c1nc(C(=O)N[C@H]2C[C@H](S(C)(=O)=O)C2)sc1-c1cnc(NC2CCCC2)cc1C(F)F` [Example 72, 5-(6-(Cyclopentylamino)-4-(difluoromethyl)pyridin-3-yl)-4-((S)-2-methylpyrrolidine-1-carbonyl)-N-((1r,3r)-3-(methylsulfonyl)cyclobutyl)thiazole-2-carboxamide], the “RORγt (FL) Reporter Assay B or C, % inhibition (value marked *)” value (“RORγt … % inhibition (value marked *)” below) at full-length human RORγt (Conditions B or C) is 104* %. Besides, the IC50 (as a rule, the concentration needed to halve the response being measured) at full-length human RORγt (setting [2]) was determined as 0.089 µM. In addition, in assay [1], the Kd – broadly, the free concentration of one partner at which half of the binding sites on the other are occupied at equilibrium, for simple one-to-one binding – was 35 nM.

Regarding `CC(C)(O)CNC(=O)c1nc(C(=O)N2C3CCC2CC3)c(-c2cnc(NCC3(C(F)(F)F)CCC3)cc2C(F)(F)F)s1` [Example 119, 4-((1s,4s)-7-Azabicyclo[2.2.1]heptane-7-carbonyl)-N-(2-hydroxy-2-methylpropyl)-5-(4-(trifluoromethyl)-6-(((1-(trifluoromethyl)cyclobutyl)methyl)amino)pyridin-3-yl)thiazole-2-carboxamide], the “RORγt … % inhibition (value marked *)” value on full-length human RORγt (Conditions B or C) is reported as 108* %. Moreover, the IC50 at full-length human RORγt (setting [2]) is 0.017 µM. Also, the Kd in assay [1] came out at 1.5 nM.

On to `C[C@H]1CCCN1C(=O)c1nc(C(=O)NCC(C)(C)O)sc1-c1cnc(NC(C2CC2)C2CC2)cc1C(F)(F)F` [Example 139, (S)-5-(6-((Dicyclopropylmethyl)amino)-4-(trifluoromethyl)pyridin-3-yl)-N-(2-hydroxy-2-methylpropyl)-4-(2-methylpyrrolidine-1-carbonyl)thiazole-2-carboxamide], for which, at full-length human RORγt (Conditions B or C), the “RORγt … % inhibition (value marked *)” value is recorded as 107* %. Besides, the IC50 at full-length human RORγt (setting [2]) stood at 0.012 µM. The Kd in assay [1] came out at 1.1 nM.

In the case of `CC[C@H](Nc1cc(C(F)F)c(-c2sc(C(=O)N[C@H]3C[C@H](O)C3)nc2C(=O)N2C3CCC2CC3)cn1)C(F)(F)F` [Example 222, 4-((1s,4s)-7-Azabicyclo[2.2.1]heptane-7-carbonyl)-5-(4-(difluoromethyl)-6-(((1S)-1-(trifluoromethyl)propyl)amino)-3-pyridyl)-N-((1r,3S)-3-hydroxycyclobutyl)thiazole-2-carboxamide], at full-length human RORγt (Conditions B or C), the “RORγt … % inhibition (value marked *)” value is reported as 113* %. For the same molecule, on full-length human RORγt (setting [2]), the IC50 is 0.012 µM. The Kd in assay [1] amounted to 10 nM.

As to `C[C@H](Nc1cc(C(F)F)c(-c2sc(C(=O)N[C@H](C)C(C)(C)O)nc2C(=O)N2C3CCC2CC3)cn1)C(F)(F)F` [Example 445, 4-((1s,4s)-7-Azabicyclo[2.2.1]heptane-7-carbonyl)-5-[4-(difluoromethyl)-6-[[(1S)-2,2,2-trifluoro-1-methyl-ethyl]amino]-3-pyridyl]-N-[(1R)-2-hydroxy-1,2-dimethyl-propyl]thiazole-2-carboxamide], the inhibition (as a rule, the drop in the measured response relative to a control, in per cent) at 3 µM on full-length human RORγt (setting [3]) came out at 73%. In addition, at full-length human RORγt (setting [4]), the IC50 turned out to be 0.096 µM. For the same molecule, the Kd in assay [1] came to 12 nM.

In the case of `CC[C@H](Nc1cc(C(F)F)c(-c2sc(C(=O)NC3CN(C(C)=O)C3)nc2C(=O)N2CCC[C@@H]2C)cn1)C(F)(F)F` [Example 382, N-(1-Acetylazetidin-3-yl)-5-[4-(difluoromethyl)-6-[[(1S)-1-(trifluoromethyl)propyl]amino]-3-pyridyl]-4-[(2S)-2-methylpyrrolidine-1-carbonyl]thiazole-2-carboxamide], the inhibition at 3 µM on full-length human RORγt (setting [3]) was determined as 107%. Moreover, the IC50 at full-length human RORγt (setting [4]) was found to be 0.3 µM. Besides, the Kd in assay [1] was 47 nM.

For the molecule `CC1(Nc2cc(C(F)F)c(-c3sc(C(=O)NC4CCS(=O)(=O)CC4)nc3C(=O)N3C4CCC3CC4)cn2)CCC1` [Example 331, 4-((1s,4s)-7-Azabicyclo[2.2.1]heptane-7-carbonyl)-5-(4-(difluoromethyl)-6-((1-methylcyclobutyl)amino)pyridin-3-yl)-N-(1,1-dioxidotetrahydro-2H-thiopyran-4-yl)thiazole-2-carboxamide], on full-length human RORγt (setting [3]), the inhibition at 3 µM was 81%. Moreover, the IC50 at full-length human RORγt (setting [4]) was 0.023 µM. The Kd in assay [1] stood at 1.5 nM.

Turning to `CC[C@H](Nc1cc(C(F)F)c(-c2sc(C(=O)N[C@@H]3CCC[C@H]3O)nc2C(=O)N2CCC[C@@H]2C)cn1)C(F)(F)F` [Example 231, 5-[4-(Difluoromethyl)-6-[[(1S)-1-(trifluoromethyl)propyl]amino]-3-pyridyl]-N-[(1R,2R)-2-hydroxycyclopentyl]-4-[(2S)-2-methylpyrrolidine-1-carbonyl]thiazole-2-carboxamide], the “RORγt … % inhibition (value marked *)” value on full-length human RORγt (Conditions B or C) is on record as 92* %. Besides, the concentration for half-maximal inhibition (IC50) on full-length human RORγt (setting [2]) was determined as 0.058 µM. Also, in assay [1], the Kd turned out to be 1.4 nM.

As to `CC[C@H](Nc1cc(C(F)F)c(-c2sc(C(=O)N[C@H](C)CO)nc2C(=O)N2C3CCC2CC3)cn1)C(F)(F)F` [Example 227, 4-((1s,4s)-7-Azabicyclo[2.2.1]heptane-7-carbonyl)-5-(4-(difluoromethyl)-6-(((1S)-1-(trifluoromethyl)propyl)amino)-3-pyridyl)-N-((1R)-2-hydroxy-1-methyl-ethyl)thiazole-2-carboxamide], at full-length human RORγt (Conditions B or C), the “RORγt … % inhibition (value marked *)” value is on record as 95* %. Also, it took 0.014 µM to reach half-maximal inhibition at full-length human RORγt (RORγt (FL) Reporter Assay B or C, IC50 (μM), Conditions B or C) (IC50). Further, in assay [1], the dissociation constant (Kd) came out at 4.6 nM.

On to `C[C@H]1CCCN1C(=O)c1nc(C(=O)N2CC[C@](C)(O)C2)sc1-c1cnc(NC(C)(C)C)cc1C(F)(F)F` (relative stereo) [Example 365, (5-(6-(tert-Butylamino)-4-(trifluoromethyl)pyridin-3-yl)-2-((S*)-3-hydroxy-3-methylpyrrolidine-1-carbonyl)thiazol-4-yl)((S)-2-methylpyrrolidin-1-yl)methanone], for which the inhibition at 1 µM at full-length human RORγt (at 1 μM compound concentration, read-out: RORγt (FL) Reporter Assay B or C, % inhibition) amounted to 92%. Also, the IC50 on full-length human RORγt (setting [4]) turned out to be 0.052 µM. Also, the Kd in assay [1] came out at 8.1 nM.

In the case of `C[C@H]1CCCN1C(=O)c1nc(C(=O)N[C@@H]2CC[C@@H](O)C2)sc1-c1cnc(NC(C)(C)C)cc1C(F)F` [Example 432, 5-[6-(tert-Butylamino)-4-(difluoromethyl)-3-pyridyl]-N-[(1R,3R)-3-hydroxycyclopentyl]-4-[(2S)-2-methylpyrrolidine-1-carbonyl]thiazole-2-carboxamide], on full-length human RORγt (at 0.33 μM compound concentration, read-out: RORγt (FL) Reporter Assay B or C, % inhibition), the inhibition at 0.33 µM came out at 122%. At full-length human RORγt (setting [4]), the IC50 was determined as 0.011 µM. In assay [1], the Kd was found to be 1.3 nM.

Take `C[C@H]1CC(F)(F)CN1C(=O)c1nc(C(=O)NCC(C)(C)O)sc1-c1cnc(NCC2(C(F)(F)F)CCC2)cc1C(F)(F)F` [Example 118, (S)-4-(4,4-Difluoro-2-methylpyrrolidine-1-carbonyl)-N-(2-hydroxy-2-methylpropyl)-5-(4-(trifluoromethyl)-6-(((1-(trifluoromethyl)cyclobutyl)methyl)amino)pyridin-3-yl)thiazole-2-carboxamide]: on full-length human RORγt (Conditions B or C, marked ****: footnote not shown), the “RORγt (FL) Reporter Assay B or C, % inhibition (value marked ****)” value is listed as 109**** %. For the same molecule, the IC50 at full-length human RORγt (setting [2]) turned out to be 0.0071 µM. Further, in assay [1], the Kd turned out to be 0.43 nM.

On to `C[C@H]1CCCN1C(=O)c1nc(C(=O)NC[C@@H](O)C(F)(F)F)sc1-c1cnc(NC(C)(C)C)cc1C(F)(F)F` (relative stereo) [Example 354, 5-(6-(tert-Butylamino)-4-(trifluoromethyl)pyridin-3-yl)-4-((S)-2-methylpyrrolidine-1-carbonyl)-N—((R*)-3,3,3-trifluoro-2-hydroxypropyl)thiazole-2-carboxamide], for which the inhibition at 3 µM at full-length human RORγt (setting [3]) turned out to be 93%. Also, on full-length human RORγt (setting [4]), the IC50 amounted to 0.015 µM. The Kd in assay [1] came to 0.97 nM.

With `CC[C@H](Nc1cc(C(F)(F)F)c(-c2sc(C(=O)N[C@H]3COC[C@@H]3O)nc2C(=O)N2CCC[C@@H]2C)cn1)C(F)(F)F` [Example 174, N-((3S,4R)-4-Hydroxytetrahydrofuran-3-yl)-4-((2S)-2-methylpyrrolidine-1-carbonyl)-5-(4-(trifluoromethyl)-6-(((1S)-1-(trifluoromethyl)propyl)amino)-3-pyridyl)thiazole-2-carboxamide], the “RORγt … % inhibition (value marked *)” value at full-length human RORγt (Conditions B or C) is 106* %. In addition, the IC50 at full-length human RORγt (setting [2]) was 0.025 µM. In assay [1], the Kd was determined as 1.4 nM.

For `CC[C@H](Nc1cc(C(F)F)c(-c2sc(C(=O)N[C@H]3COC[C@@H]3O)nc2C(=O)N2CCC[C@@H]2C)cn1)C(F)(F)F` [Example 239, 5-[4-(Difluoromethyl)-6-[[(1S)-1-(trifluoromethyl)propyl]amino]-3-pyridyl]-N-[(3S,4R)-4-hydroxytetrahydrofuran-3-yl]-4-[(2S)-2-methylpyrrolidine-1-carbonyl]thiazole-2-carboxamide], on full-length human RORγt (Conditions B or C), the “RORγt … % inhibition (value marked *)” value was 105* %. Besides, the IC50 at full-length human RORγt (setting [2]) was 0.019 µM. Besides, the dissociation constant (Kd) in assay [1] came out at 5.4 nM.

For the molecule `C[C@H]1CCCN1C(=O)c1nc(C(=O)NCC(C)(O)C(F)(F)F)sc1-c1cnc(NC(C)(C)C)cc1C(F)(F)F` (single isomer, unassigned) [Example 359, 5-(6-(tert-Butylamino)-4-(trifluoromethyl)pyridin-3-yl)-4-((S)-2-methylpyrrolidine-1-carbonyl)-N—((R*)-3,3,3-trifluoro-2-hydroxy-2-methylpropyl)thiazole-2-carboxamide], the “RORγt (FL) Reporter Assay B or C, % inhibition” value at full-length human RORγt (at 3 μM compound concentration) was 125* %. Also, the IC50 on full-length human RORγt (setting [4]) was determined as 0.0076 µM. Also, the Kd in assay [1] amounted to 1.1 nM.

For the molecule `C[C@H]1CC(F)(F)CN1C(=O)c1nc(C(=O)NCC(C)(C)O)sc1-c1cnc(NC(C2CC2)C2CC2)cc1C(F)F` [Example 177, (S)-5-(6-((Dicyclopropylmethyl)amino)-4-(difluoromethyl)pyridine-3-yl)-4-(4,4-difluoro-2-methylpyrrolidine-1-carbonyl)-N-(2-hydroxy-2-methylpropyl)thiazole-2-carboxamide], the “RORγt … % inhibition (value marked *)” value at full-length human RORγt (Conditions B or C) is on record as 117* %. The IC50 on full-length human RORγt (setting [2]) was determined as 0.0066 µM. Further, the Kd in assay [1] was 0.97 nM.
